# Tests used:
# [1] = tested on: TGFβ/SMAD Signaling Pathway SBE reporter cell line; assay: TGFβ reporter assay, in vitro small molecule screening (luciferase); assay type: cell-based; conditions: TGFβ stimulation, luminescence
# Experimental: TGFβ/SMAD Signaling Pathway SBE reporter cell line was obtained from BPS Bioscience. Cells were passed, expanded, and stored in liquid nitrogen as per the supplier's instructions with the exception that growth media is changed to DMEM-C with Geneticin (DMEM supplemented with 10% fetal bovine serum, 1×NEAA, 1 mM Pyruvate, 2 mM glutamine, 50 μg/mL penicillin, 50 U/mL streptomycin and 400 μg/mL of Geneticin). The assay media was MEM supplemented with 0.5% fetal bovine serum, 1×NEAA, 1 mM Pyruvate, 50 μg/mL penicillin and 50 U/mL streptomycin.
# Test samples (at desired concentrations diluted in assay media) were added to a 96-well assay plate, 20 μL per well. Reporter cells were harvested from the tissue culture flasks by incubation in small quantity of PBS at 37° C. for two minutes after the media in the flask is removed and cells rinsed with PBS. Cells were counted and diluted in the assay media at approximately 0.5×10^6 cells/mL and then 80 μL/well of cells were added to the assay plate containing the 20 μL/well of test samples (or media only), and incubated for approximately 5-6 hours at 37° C. in a 5% CO2 humidified incubator. After that time, 15 μL of TGFβ diluted to 12 ng/mL in the assay media was added to the plate. Controls included TGFβ titration (from 50 to 0 ng/mL) without inhibitors, and media only (without cells, inhibitor or TGFβ). Plates were incubated at 37° C. in a 5% CO2 humidified incubator for 18 h. Luciferase substrate solution is subsequently added at 100 μL per well, incubated in the dark at room temperature for 15 min, and luminescence is measured using a luminometer. EC50 values and curve fits were obtained using Prism (GraphPad Software).
# TGFBR2 = biological target: T1, TGFBR2 (Homo sapiens, UniProt P37173); assay: TGFBR2 RBC assay (enzyme inhibition assay, Reaction Biology Corp.); assay type: biochemical
# T1 construct: purchased Reaction Biology Corp
# Experimental: Compounds of the disclosure were also assayed by Reaction Biology Corp. using the TGFBR2 RBC assay (enzyme inhibition assay). […] NT refers to not tested.
# T1 sequence (P37173 23-567): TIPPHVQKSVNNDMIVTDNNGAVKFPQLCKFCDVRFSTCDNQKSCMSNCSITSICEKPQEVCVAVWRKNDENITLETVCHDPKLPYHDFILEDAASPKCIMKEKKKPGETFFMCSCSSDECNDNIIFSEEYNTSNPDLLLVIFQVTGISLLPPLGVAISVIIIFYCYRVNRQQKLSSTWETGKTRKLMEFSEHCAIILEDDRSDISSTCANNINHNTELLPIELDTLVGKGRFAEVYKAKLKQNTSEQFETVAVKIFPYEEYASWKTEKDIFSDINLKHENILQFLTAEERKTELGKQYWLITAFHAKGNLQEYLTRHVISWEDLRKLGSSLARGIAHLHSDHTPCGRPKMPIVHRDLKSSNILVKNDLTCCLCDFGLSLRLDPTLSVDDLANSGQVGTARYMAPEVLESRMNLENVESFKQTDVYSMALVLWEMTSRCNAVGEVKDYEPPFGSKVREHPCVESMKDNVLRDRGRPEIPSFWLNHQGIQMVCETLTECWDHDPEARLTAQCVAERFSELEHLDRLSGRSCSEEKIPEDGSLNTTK
EC50 [1] [nM],IC50 (TGFBR2) [nM],SMILES
100 to 1000,< 50,Nc1ncc(-c2ccc(CCNC(=O)OCc3ccccc3)cc2)nc1C(=O)Nc1cnccc1-c1ccncc1F [Compound 23]
100 to 1000,< 50,Nc1ncc(-c2ccc(CCNC(=O)OCc3ccccc3)cc2)nc1C(=O)Nc1cnccc1-c1ccccn1 [Compound 25]
> 1000,> 1000,[N-]=[N+]=NCC1COCCN1c1ccncc1NC(=O)c1nc(-c2ccc(CCNC(=O)OCc3ccccc3)cc2)cnc1N (stereo not drawn) [Compound 27]
100 to 1000,100 to 1000,C[C@H]1CN(c2ccncc2NC(=O)c2nc(-c3ccc(CCNC(=O)OCc4ccccc4)cc3)cnc2N)CCO1 [Compound 28]
100 to 1000,> 1000,Nc1ncc(-c2ccc(CCNC(=O)OCc3ccccc3)cc2)nc1C(=O)Nc1cnccc1N1CCC(F)(F)CC1 [Compound 29]
> 1000,100 to 1000,NCC1CN(c2ccncc2NC(=O)c2nc(-c3ccc(CCNC(=O)OCc4ccccc4)cc3)cnc2N)CCO1 (stereo not drawn) [Compound 30]
50 to 100,100 to 1000,Cc1cnccc1-c1ccncc1NC(=O)c1nc(-c2ccc(CCNC(=O)OCc3ccccc3)cc2)cnc1N [Compound 32]
> 1000,100 to 1000,Nc1ncc(-c2ccc(CCNC(=O)OCc3ccccc3)cc2)nc1C(=O)Nc1cnccc1-c1ccc(O)cc1 [Compound 34]
100 to 1000,100 to 1000,Nc1ncc(-c2ccc(CCNC(=O)OCc3ccccc3)cc2)nc1C(=O)Nc1cnccc1N1CCOCC1=O [Compound 35]
50 to 100,100 to 1000,Nc1ncc(-c2ccc(CCNC(=O)OCc3ccccc3)cc2)nc1C(=O)Nc1cnccc1N1CCSCC1 [Compound 36]
> 1000,> 1000,NCC1COCCN1c1ccncc1NC(=O)c1nc(-c2ccc(CCNC(=O)OCc3ccccc3)cc2)cnc1N (stereo not drawn) [Compound 37]
100 to 1000,100 to 1000,Nc1ncc(-c2ccc(CCNC(=O)OCc3ccccc3)cc2)nc1C(=O)Nc1cnccc1N1CCCOC1=O [Compound 38]
> 1000,100 to 1000,Nc1ncc(-c2ccc(CCNC(=O)OCc3ccccc3)cc2)nc1C(=O)Nc1cnccc1-c1cc[nH]c(=O)c1 [Compound 39]
> 1000,< 50,Nc1cc(-c2ccncc2NC(=O)c2nc(-c3ccc(CCNC(=O)OCc4ccccc4)cc3)cnc2N)ccn1 [Compound 40]
100 to 1000,100 to 1000,NCC1CN(c2ccncc2NC(=O)c2nc(-c3ccc(CCNC(=O)OCc4ccccc4)cc3)cnc2N)CCO1 (stereo not drawn) [Compound 41]
100 to 1000,50 to 100,COC1CCN(c2ccncc2NC(=O)c2nc(-c3ccc(CCNC(=O)OCc4ccccc4)cc3)cnc2N)CC1 [Compound 42]
100 to 1000,< 50,Nc1ccc(-c2ccncc2NC(=O)c2nc(-c3ccc(CCNC(=O)OCc4ccccc4)cc3)cnc2N)cn1 [Compound 43]
100 to 1000,< 50,Nc1ncc(-c2ccc(CCNC(=O)OCc3ccccc3)c(F)c2)nc1C(=O)Nc1cnccc1N1CCOCC1 [Compound 46]
> 1000,> 1000,Nc1ncc(-c2ccc(CCNC(=O)OCc3ccccc3)cc2)nc1C(=O)Nc1cnccc1N1CCOCCC1=O [Compound 47]
> 1000,< 50,Nc1ncc(-c2ccc(CCNC(=O)OCc3ccccc3)cc2)nc1C(=O)Nc1cnccc1-c1ccnnc1 [Compound 48]
> 1000,> 1000,Nc1ncc(-c2ccc(CCNC(=O)OCc3ccccc3)cc2)nc1C(=O)Nc1cnccc1-c1ccncn1 [Compound 49]
100 to 1000,< 50,Nc1ncc(-c2ccc(CCNC(=O)OCc3ccccc3)cc2F)nc1C(=O)Nc1cnccc1N1CCOCC1 [Compound 50]
100 to 1000,> 1000,Nc1ncc(-c2ccc(CCNC(=O)OCc3ccccc3)cc2)nc1C(=O)Nc1cnccc1N1CCS(=O)(=O)CC1 [Compound 52]
> 1000,> 1000,COC1CCN(c2ccncc2NC(=O)c2nc(-c3ccc(CCNC(=O)OCc4ccccc4)cc3)cnc2N)C1 (stereo not drawn) [Compound 53]
100 to 1000,50 to 100,Nc1ncc(-c2ccc(CCNC(=O)OCc3ccccc3)cc2)nc1C(=O)Nc1cnccc1CN1CCCC1 [Compound 72]
100 to 1000,50 to 100,Nc1ncc(-c2ccc(CCCCNC(=O)OCc3ccccc3)cc2)nc1C(=O)Nc1cnccc1N1CCOCC1 [Compound 74]

# More lines, now with the values behind:
SMILES,EC50 [1] [nM],IC50 (TGFBR2) [nM]
COc1ccc(-c2ccncc2NC(=O)c2nc(-c3ccc(CCNC(=O)OCc4ccccc4)cc3)cnc2N)cn1 [Compound 16],100 to 1000,< 50
Cc1cc(-c2ccncc2NC(=O)c2nc(-c3ccc(CCNC(=O)OCc4ccccc4)cc3)cnc2N)ccn1 [Compound 17],100 to 1000,100 to 1000
Nc1ncc(-c2ccc(CCNC(=O)OCc3ccccc3)cc2)nc1C(=O)Nc1cnccc1-c1ccnc(Cl)c1 [Compound 18],100 to 1000,> 1000
Nc1ncc(-c2ccc(CCNC(=O)OCc3ccccc3)cc2)nc1C(=O)Nc1cnccc1-c1ccnc2ccccc12 [Compound 19],> 1000,> 1000
Nc1ncc(-c2ccc(CCNC(=O)OCc3ccccc3)cc2)nc1C(=O)Nc1cnccc1-c1ccc(F)cc1 [Compound 20],> 1000,> 1000
COc1cc(-c2ccncc2NC(=O)c2nc(-c3ccc(CCNC(=O)OCc4ccccc4)cc3)cnc2N)ccn1 [Compound 21],100 to 1000,> 1000
Nc1ncc(-c2ccc(CCNC(=O)OCc3ccccc3)cc2)nc1C(=O)Nc1cnccc1-c1ccc(=O)[nH]c1 [Compound 22],50 to 100,100 to 1000
COc1cccc(-c2ccncc2NC(=O)c2nc(-c3ccc(CCNC(=O)OCc4ccccc4)cc3)cnc2N)c1 [Compound 24],100 to 1000,100 to 1000
Nc1ncc(-c2ccc(CCNC(=O)OCc3ccccc3)cc2)nc1C(=O)Nc1cnccc1-c1ccc2c(c1)OCO2 [Compound 26],100 to 1000,< 50
N#Cc1ccccc1-c1ccncc1NC(=O)c1nc(-c2ccc(CCNC(=O)OCc3ccccc3)cc2)cnc1N [Compound 31],> 1000,> 1000
COc1cnccc1-c1ccncc1NC(=O)c1nc(-c2ccc(CCNC(=O)OCc3ccccc3)cc2)cnc1N [Compound 33],100 to 1000,> 1000
CNCCc1ccc(-c2cnc(N)c(C(=O)Nc3cnccc3N3CCOCC3)n2)cc1 [Compound 44],100 to 1000,100 to 1000
CC(=O)CCC(=O)NCCc1ccc(-c2cnc(N)c(C(=O)Nc3cnccc3N3CCOCC3)n2)cc1 [Compound 51],50 to 100,< 50
Nc1ncc(-c2ccc(CCNC(=O)CCC(=O)c3ccccc3)cc2)nc1C(=O)Nc1cnccc1N1CCOCC1 [Compound 54],50 to 100,< 50
NCCc1ccc(-c2cnc(N)c(C(=O)Nc3cnccc3N3CCOCC3)n2)c(F)c1 [Compound 55],< 50,< 50
COc1cc(CCN)ccc1-c1cnc(N)c(C(=O)Nc2cnccc2N2CCOCC2)n1 [Compound 56],50 to 100,50 to 100
NCCc1cc(F)c(-c2cnc(N)c(C(=O)Nc3cnccc3N3CCOCC3)n2)c(F)c1 [Compound 57],100 to 1000,100 to 1000
Nc1ncc(-c2ccc(S(=O)(=O)N3CCNCC3)cc2)nc1C(=O)Nc1cnccc1N1CCOCC1 [Compound 62],50 to 100,100 to 1000
Nc1ncc(-c2ccc(S(=O)(=O)N3CCN(C(=O)OCc4ccccc4)CC3)cc2)nc1C(=O)Nc1cnccc1N1CCOCC1 [Compound 63],50 to 100,100 to 1000
NCCOc1ccc(-c2cnc(N)c(C(=O)Nc3cnccc3N3CCOCC3)n2)cc1 [Compound 64],50 to 100,< 50
NCCCOc1ccc(-c2cnc(N)c(C(=O)Nc3cnccc3N3CCOCC3)n2)cc1 [Compound 65],100 to 1000,< 50
NCCCc1ccc(-c2cnc(N)c(C(=O)Nc3cc(F)ccc3N3CCOCC3)n2)cc1 [Compound 66],> 1000,100 to 1000
Nc1ncc(-c2ccc3c(c2)CNCC3)nc1C(=O)Nc1cnccc1N1CCOCC1 [Compound 67],50 to 100,50 to 100
CC(C)(C)OC(=O)N1CCc2ccc(-c3cnc(N)c(C(=O)Nc4cnccc4N4CCOCC4)n3)cc2C1 [Compound 68],100 to 1000,< 50
NCCCc1ccc(-c2cnc(N)c(C(=O)Nc3cnccc3N3CCOCC3)c2)cc1 [Compound 69],> 1000,> 1000
Nc1ncc(-c2ccc(N3CCNCC3)cc2)nc1C(=O)Nc1cnccc1N1CCOCC1 [Compound 70],50 to 100,< 50
CC(C)(C)OC(=O)N1CCN(c2ccc(-c3cnc(N)c(C(=O)Nc4cnccc4N4CCOCC4)n3)cc2)CC1 [Compound 71],100 to 1000,< 50
NCCCCc1ccc(-c2cnc(N)c(C(=O)Nc3cnccc3N3CCOCC3)n2)cc1 [Compound 73],50 to 100,< 50

# From patent publication US20220362396A1, “AMINO-PYRAZINECARBOXAMIDE COMPOUNDS, CONJUGATES, AND USES THEREOF” (Silverback Therapeutics, Inc., priority 2018, published 2022)
